# Assay results as given in patent publication US20180168154A1, “PLANT GROWTH REGULATING COMPOUNDS” (Syngenta Participations AG, priority 2015, published 2018).
# Where two headings read alike, the source gives them in different places. Marks after values point to notes of the source that are not given here.
# Assays:
# [1] = Hydrolytic stability assay; format: physicochemical; conditions: for half-life: 20 mM mixed acetate, borate and phosphate buffer; for half-life / Hydrolytic Stability (t1/2, hours) pH 7: 40° C.; for % remaining at last assessment time: pH 7, 40° C.
# Procedure: The objective of the hydrolytic stability assays is to determine the chemical stability of individual test compounds according to the invention in a controlled and reproducible environment, allowing a comparison of compound in vitro stability under aqueous conditions at pH 7 and 9. Prior to conducting the individual hydrolytic stability assays, stock solutions containing 1000 ppm of each test compound (ie, compounds (IA-1a), (IA-1b), (IA-17a), (IA-17b), P1 and P2) were prepared in methanol. The reagents used in the assays were prepared as follows. A 20 mM buffer solution was prepared from a stock solution of 20 mM mixed acetate, borate and phosphate buffer and the pH adjusted to 7 or 9 as required. Test solutions were prepared in LC vials for each test compound in the following manner: Mobile Phase Control: Mobile phase (1 mL)+compound stock solution (2 to 40 μL). Hydrolytic Stability: Buffer (1 mL)+compound stock solution (2 to 40 μL). The mobile phase and buffer were initially dispensed into separate glass LC vials, placed into an autosampler complete with thermostat set at 40° C. and allowed to equilibrate for 30 minutes prior to starting the individual assays. Reactions were initiated by addition of the compound solution and monitored through a series of repeat injections made directly from the vial into the HPLC system at regular time intervals. Initial and subsequent measurements of peak area attributable to the test compound were used to fit exponential half-lives and calculate first-order rate constants. […] Consequently, the percentage of compound remaining was recorded at the last assessment time.
# Soil stability assay = format: physicochemical; conditions: Stein soil:sand 1:1, 0.3 μg/g soil, dark, 20° C.
# Excerpt: It is highly desirable that agrochemicals applied to soil in order to deliver a beneficial biological effect can exist in the soil for a prolonged period of time with minimal degradation. However, a biologically active agrochemical compound may undergo chemical transformation in soil, leading to decreased levels of activity and a decrease in a desired biological effect. Simple laboratory degradation studies can be used to evaluate the disappearance due to biotic and abiotic processes of a compound in soil. The time taken for a compound to degrade in soil allows the estimation of their half-life (t1/2), which corresponds to the time in which 50% of the compound under evaluation is degraded in soil. […] Stock standard solutions were prepared by dissolving 1 mg of each test compound (ie, compounds (IA-1a and IA-1b), (IA-17a and IA-17b), P1 and P2) in acetonitrile. The stock standard solutions were stored at 6° C. Working standard solutions were then obtained by a series of dilutions of the stock standard solutions. A treatment solution of 100 μg/mL concentration for each test compound was prepared in methanol. Soil samples used for this soil stability assay were collected at the Syngenta Research Centre location in Stein (Switzerland). The soil was classified as clay loam. Certain physical properties of the soil are described in Table 2. 2 mm sieved Stein soil was mixed with sand at ratio 1:1 prior to starting the laboratory soil degradation experiment. 10 g of the sand-soil mix (air-dried basis) was weighed into 50 ml Corning® polypropylene centrifuge tubes and soil moisture was adjusted at 45% of the field capacity. Chemical application was performed by applying 30 μl of a 100 μg/mL solution of each test compound to 10 g soil vessel corresponding to a final concentration of 0.3 μg test compound per gram of soil. Three replicates were considered for each test compound. Treated tubes were incubated in the dark at 20° C.±0.5. For the estimation of half-life, different sampling times were considered. Based on initial studies, a fast degradation was expected for compounds P1, P2 and IA-17 therefore the following short sampling times of 0, 3, 6, 9 and 24 hours after application were considered. Conversely for compounds IA-1, longer sampling times of 0, 6, 24, 48, 72, 168 and 240 hours after application were used. At each sampling time, samples were removed and stored at −80° C. until analysis. The half-lives were calculated by an exponential regression analysis plotting the percentage of recovered compound in soil against the time. Compounds P1, P2, (IA-1) and (IA-17) were extracted from soil by using 30 mL of Acetonitrile (CHROMASOLV® gradient grade, for HPLC, >99.9%, SIGMA-ALDRICH). The mixture was shaken for 3 hours at room temperature by using a vertical rotary shaker. After centrifugation at 3000 rpm for 5 minutes, an aliquot of the supernatant was collected and analyzed via UPLC-MS (Waters Acquity UPLC-MS PDA-Detection: 254 nm- and SQD-Zspray ESI, APCI, ESCi®-; Waters Acquity UPLC Column HSS T3 2.1×30 mm-1.8 μm; Gradient mobile phase with Solvent A: Water/MeOH (9:1)+ 0.1% Formic Acid and Solvent B: Acetonitrile+ 0.1% Formic Acid; flow of 0.75 ml/min).
# NK Falkone corn seeds = test: Corn seed germination under cold stress; format: in vivo; conditions: 250 μM, cold stress 15° C., control T50 = 110 hours; negative = faster germination
# Procedure: Corn seed germination studies were undertaken on the compounds of the present invention. In particular, the effect of the compounds of Formulae (IA-1a) and (IA-1b) on the germination of NK Falkone corn seeds (Syngenta) under cold stress was evaluated as follows.
# NK Falkone corn seeds were sorted by size using 2 sieves, one excluding very big seeds and the other with round holes of 8 to 9 mm diameter. The seeds retained by the latter sieve were used for the germination test.
# The corn seeds were placed in 24 well plates (each plate is considered as one experimental unit or replicate). Germination is initiated by the addition of 250 μl of distilled water containing 0.5% DMSO per well as a means for compound solubilization. 8 replicates (ie, 8 plates) were used for each treatment characterization. Plates were sealed using seal foil (Polyolefin Art. Nr. 900320) from HJ-BIOANALYTIK. All plates were placed horizontally on trolleys in a climatic chamber at 15° C. or 23° C. in complete darkness. The experiment was laid out in a completely randomized design in a climatic chamber with 75% relative humidity. Foils were pierced, one hole per well using a syringe after 72 hours for experiments performed at 15° C. and after 24 hours for experiments performed at 23° C.
# Germination was followed over time by taking photographs at different time points. Image analysis is done automatically with a macro developed using the Image J software. A dynamic analysis of germination is carried out by fitting a logistic curve to the relationship between % germination and time for each plate (T50 parameter).
# T50 is the time needed for half the seed population to be germinated. A negative value of T50 represents a faster germination rate. The mean of T50 parameters is calculated for the 8 replicates and the kinetic parameter is determined for each germination curve. Data in bold indicate germination enhancing statistically significant differences between treated seeds and control (empty vehicle treated) T50 values (P<0.05) as outlined in Table 4.
# [2] = pH 9, 20 mM acetate/borate/phosphate buffer, read-out: Hydrolytic Stability (t1/2, hours) pH 9 (converted)
# [3] = pH 7, 20 mM acetate/borate/phosphate buffer
# [4] = pH 7, 20 mM acetate/borate/phosphate buffer, read-out: Hydrolytic Stability (t1/2, hours) pH 7 (converted)
SMILES,"half-life [1, 2] [h]","Hydrolytic Stability (t1/2, hours) pH 7 [1, 3]","Hydrolytic Stability (t1/2, hours) pH 7 ([1]; pH 7, 20 mM acetate/borate/phosphate buffer, listed as IA-17b)",% remaining at last assessment time ([1]; at 16.8 hours),"Soil Stability (t1/2, hours) (Soil stability assay) [h]","Hydrolytic Stability (t1/2, hours) pH 7 ([1]; pH 7, 20 mM acetate/borate/phosphate buffer, listed as IA-17a)",% remaining at last assessment time ([1]; at 17.3 hours),"Hydrolytic Stability (t1/2, hours) pH 7 ([1]; pH 7, 20 mM acetate/borate/phosphate buffer, listed as IA-1a)",% remaining at last assessment time ([1]; at 17.9 hours),"half-life [1, 4] [h]",% remaining at last assessment time ([1]; at 21.5 hours),"Hydrolytic Stability (t1/2, hours) pH 7 ([1]; pH 7, 20 mM acetate/borate/phosphate buffer, listed as IA-1b)",% remaining at last assessment time ([1]; at 21.1 hours),% remaining at last assessment time ([1]; at 15.8 hours),T50 (% vs control) (NK Falkone corn seeds)
"COC1=C(C)C(=O)O[C@@H]1O/C=C1/C(=O)N[C@@H]2c3ccccc3C[C@H]12 [(IA-17b), (3E,3aR,8bS)-3-[[(2S)-3-methoxy-4-methyl-5-oxo-2H-furan-2-yl]oxymethylene]-1,3a,4,8b-tetrahydroindeno[1,2-b]pyrrol-2-one]",19,stable^c,insufficient loss was observed,^c99.0% remaining at 16.8 hours,312,–,–,–,–,–,–,–,–,–,−5.10 % vs control
"COC1=C(C)C(=O)O[C@H]1O/C=C1/C(=O)N[C@@H]2c3ccccc3C[C@H]12 [(IA-17a), (3E,3aR,8bS)-3-[[(2R)-3-methoxy-4-methyl-5-oxo-2H-furan-2-yl]oxymethylene]-1,3a,4,8b-tetrahydroindeno[1,2-b]pyrrol-2-one]",16.6,stable^d,–,–,340,insufficient loss was observed,^d99.1% remaining at 17.3 hours,–,–,–,–,–,–,–,−6.50 % vs control
"CC1=C(C)[C@H](O/C=C2/C(=O)N[C@@H]3c4ccccc4C[C@H]23)OC1=O [(IA-1a), (3E,3aR,8bS)-3-[[(2R)-3,4-dimethyl-5-oxo-2H-furan-2-yl]oxymethylene]-1,3a,4,8b-tetrahydroindeno[1,2-b]pyrrol-2-one]",2.4,stable^b,–,–,87,–,–,insufficient loss was observed,^b91.8% remaining at 17.9 hours,–,–,–,–,–,−6.10^c % vs control
"CC1=C(C)[C@@H](O/C=C2/C(=O)N[C@@H]3c4ccccc4C[C@H]23)OC1=O [(IA-1b), (3E,3aR,8bS)-3-[[(2S)-3,4-dimethyl-5-oxo-2H-furan-2-yl]oxymethylene]-1,3a,4,8b-tetrahydroindeno[1,2-b]pyrrol-2-one]",2.1,stable^a,–,–,53,–,–,–,–,–,–,insufficient loss was observed,^a90.9% remaining at 21.1 hours,–,−7.60 % vs control

# Further lines, with some results ahead:
"half-life [1, 2] [h]","Hydrolytic Stability (t1/2, hours) pH 7 [1, 3]","Hydrolytic Stability (t1/2, hours) pH 7 ([1]; pH 7, 20 mM acetate/borate/phosphate buffer, listed as IA-17b)",% remaining at last assessment time ([1]; at 16.8 hours),"Soil Stability (t1/2, hours) (Soil stability assay) [h]","Hydrolytic Stability (t1/2, hours) pH 7 ([1]; pH 7, 20 mM acetate/borate/phosphate buffer, listed as IA-17a)",% remaining at last assessment time ([1]; at 17.3 hours),"Hydrolytic Stability (t1/2, hours) pH 7 ([1]; pH 7, 20 mM acetate/borate/phosphate buffer, listed as IA-1a)",% remaining at last assessment time ([1]; at 17.9 hours),"half-life [1, 4] [h]",% remaining at last assessment time ([1]; at 21.5 hours),"Hydrolytic Stability (t1/2, hours) pH 7 ([1]; pH 7, 20 mM acetate/borate/phosphate buffer, listed as IA-1b)",% remaining at last assessment time ([1]; at 21.1 hours),% remaining at last assessment time ([1]; at 15.8 hours),SMILES,T50 (% vs control) (NK Falkone corn seeds)
0.4,–,–,–,4,–,–,–,–,25.6,^f55.4% remaining at 21.5 hours,–,–,–,"CC1=C[C@H](O/C=C2/C(=O)N[C@@H]3c4ccccc4C[C@H]23)OC1=O [Compound P1, reference compound]",−4.20 % vs control
0.3,–,–,–,4.2,–,–,–,–,79.5,–,–,–,^e86.9% remaining at 15.8 hours,"CC1=C[C@@H](O/C=C2/C(=O)N[C@@H]3c4ccccc4C[C@H]23)OC1=O [Compound P2, reference compound]",−2.30 % vs control
